Experimental findings from publication PMC8964421, “Widespread occurrence of covalent lysine–cysteine redox switches in proteins” (Nature Chemical Biology, 2022) are described below.

In the test the target is T1, NgTAL; transaldolase from Neisseria gonorrhoeae (Neisseria gonorrhoeae, UniProt Q5F6E9).
T1 construct: gene tal; recombinant from pET SUMO vector, purified
T1 sequence (Q5F6E9 1-351): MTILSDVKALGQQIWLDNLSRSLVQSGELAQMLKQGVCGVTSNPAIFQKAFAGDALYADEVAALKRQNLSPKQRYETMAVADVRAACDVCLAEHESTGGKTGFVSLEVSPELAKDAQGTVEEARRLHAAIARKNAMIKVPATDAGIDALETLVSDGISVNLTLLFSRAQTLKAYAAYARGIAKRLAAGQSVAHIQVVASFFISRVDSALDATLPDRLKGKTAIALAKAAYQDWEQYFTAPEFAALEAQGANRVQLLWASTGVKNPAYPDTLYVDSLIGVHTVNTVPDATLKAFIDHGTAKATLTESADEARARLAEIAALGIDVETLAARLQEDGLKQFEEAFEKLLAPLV
Nature of the test: coupled enzymatic assay at […] nm, steady-state kinetics. Type of test: biochemical. Particulars: co-substrate D-erythrose-4-phosphate; reducing (1 mM DTT) and non-reducing conditions; varied substrate not named in main text.

With `O=P(O)(O)OC[C@H]1OC(O)(CO)[C@@H](O)[C@@H]1O` (stereo partly drawn) [D-fructose-6-phosphate], the Michaelis constant result is “monitors the conversion of ketose donor D-fructose-6-phosphate and aldose acceptor D-erythrose-4-phosphate into products”.
